The structures appear in SMILES notation. Values joined by “and” are separate entries in the source; they are usually repeats but may differ in a detail not shown here. Identical values can stand only once.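 Tested at 5 concentrations; 48 h exposure; 96-well plates; endpoints linearly interpolated, else capped at highest concentration. GI50 marks 50% less growth. Definition used: TGI = concentration required for complete inhibition of growth.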

This note sets out measurements from PubChem BioAssay (NCI).

Some test systems named below: CCRF-CEM leukemia; COLO 205 colon; HS 578T breast; K-562 leukemia; MCF7 breast; MDA-MB-435; NCI/ADR-RES ovarian; SF-295 CNS; SK-MEL-28 melanoma; SW-620 colon.
Common to all, as to experiment: NCI anticancer screen, dose series, 48 h

As to `Oc1ccc2ccccc2c1C1NN=C(c2ccccc2)S1` (centres undefined), the GI50 is 0.359 µM in the assay on CCRF-CEM leukemia; 0.55 µM in the assay with COLO 205 colon; 2.41 µM in the assay with HS 578T breast; 0.504 µM in the assay with K-562 leukemia; 0.426 µM in the assay on MCF7 breast; 0.632 µM in the assay with MDA-MB-435. Further, the GI50 in the assay on NCI/ADR-RES ovarian was 0.383 µM; in the assay on SF-295 CNS it was 0.475 µM; in the assay with SK-MEL-28 melanoma, 0.799 µM; in the assay on SW-620 colon it was 0.806 µM. The TGI in the assay with CCRF-CEM leukemia was above 100 µM; in the assay with COLO 205 colon it was 16.3 µM; with HS 578T breast, 44.4 µM; in the assay with K-562 leukemia, above 100 µM; in the assay on MCF7 breast, 21.2 µM; with MDA-MB-435 it was 42.4 µM. Further, the TGI in the assay with NCI/ADR-RES ovarian was 62.8 µM; in the assay on SF-295 CNS, 62.2 µM; with SK-MEL-28 melanoma, 97.8 µM; with SW-620 colon, above 100 µM.
For the molecule `C[C@@H](NC(=O)[C@@H](CC(=O)N1CCC(N2CCCCC2)CC1)N1C(=O)[C@@H](N2C(=O)OC[C@@H]2c2ccccc2)[C@H]1/C=C/c1cccc(Cl)c1)c1ccccc1`, the GI50 in the assay with CCRF-CEM leukemia was 2.73 µM; in the assay on COLO 205 colon, 1.8 µM; in the assay with HS 578T breast it was 2.77 µM; with K-562 leukemia, 2.63 µM; in the assay with MCF7 breast, 2.04 µM; in the assay with MDA-MB-435 it was 1.64 µM. For the same molecule, the GI50 in the assay with NCI/ADR-RES ovarian is 5.92 µM; with SF-295 CNS it was 1.84 µM; with SK-MEL-28 melanoma it was 1.8 µM; in the assay on SW-620 colon, 2.06 µM. The TGI in the assay with CCRF-CEM leukemia amounted to 7.93 µM; with COLO 205 colon, 4.24 µM; in the assay with HS 578T breast, 7.16 µM; with K-562 leukemia, 5.47 µM; with MCF7 breast it was 5.36 µM; with MDA-MB-435 it was 3.17 µM. Besides, the TGI came out at 24.8 µM with NCI/ADR-RES ovarian, 3.91 µM in the assay with SF-295 CNS, 3.63 µM in the assay on SK-MEL-28 melanoma and 4.7 µM in the assay with SW-620 colon.
Regarding `CCOC(=O)NC1=C(N2CC2)C(=O)C(NC(=O)OCC)=C(N2CC2)C1=O`, the GI50 in the assay with CCRF-CEM leukemia was 3.47 µM and 1.88 µM; in the assay with COLO 205 colon, 15.1 µM and 8.56 µM; in the assay with K-562 leukemia, 6.13 µM; in the assay on MCF7 breast it was 6.33 µM; in the assay with NCI/ADR-RES ovarian, 8.44 µM; with SF-295 CNS, 1.86 µM. Further, the GI50 with SK-MEL-28 melanoma is 22.3 µM and 16.6 µM; in the assay on SW-620 colon, 5.99 µM and 5.69 µM. Further, the TGI is 9.8 µM and 16.1 µM and 12.1 µM with CCRF-CEM leukemia; 25 µM and 33 µM and 51.1 µM in the assay on COLO 205 colon; 24.7 µM in the assay on HS 578T breast; 20.8 µM and 38.3 µM and 17 µM with K-562 leukemia; 25 µM and 21.3 µM with MCF7 breast; 7.28 µM with MDA-MB-435. In addition, the TGI is 25 µM and 16.8 µM in the assay with NCI/ADR-RES ovarian; 25 µM and 23.3 µM and 31.4 µM in the assay on SF-295 CNS; 25 µM and 42.4 µM and 54.4 µM in the assay with SK-MEL-28 melanoma; 24.6 µM and 26.1 µM and 19.2 µM with SW-620 colon.
As to `CC(C)[NH-].CC(C)[NH-].O.O.[Cl][Pt+2][Cl]`, the GI50 with CCRF-CEM leukemia was 6.59 µM; in the assay with COLO 205 colon, 30.1 µM; in the assay with HS 578T breast, 98.8 µM; with K-562 leukemia, 39.1 µM; in the assay on MCF7 breast, 19.4 µM; in the assay on MDA-MB-435 it was 26 µM. Further, the GI50 in the assay on NCI/ADR-RES ovarian was 60.9 µM; in the assay on SF-295 CNS, 42.9 µM; in the assay on SK-MEL-28 melanoma, 46.8 µM; with SW-620 colon, 23.1 µM. Besides, the TGI with CCRF-CEM leukemia amounted to 97.7 µM; with COLO 205 colon it was 98.7 µM; in the assay with HS 578T breast it was 594 µM; with K-562 leukemia, 179 µM; with MCF7 breast, 102 µM; in the assay on MDA-MB-435, 76.2 µM. Besides, the TGI in the assay with NCI/ADR-RES ovarian came to 343 µM; with SF-295 CNS, 149 µM; in the assay on SK-MEL-28 melanoma it was 197 µM; in the assay on SW-620 colon, 137 µM.
On to `Fc1cccc(CSc2ncnc3c2ncn3C2CCCS2)c1` (centres undefined), for which the TGI is 46.6 µM in the assay with CCRF-CEM leukemia; 24.4 µM in the assay on COLO 205 colon; above 100 µM in the assay with HS 578T breast; 84.2 µM in the assay on K-562 leukemia; 63.7 µM in the assay with MCF7 breast; 38.4 µM in the assay with MDA-MB-435. Also, the TGI in the assay on NCI/ADR-RES ovarian was 96.7 µM; with SF-295 CNS it was 41.1 µM; in the assay on SK-MEL-28 melanoma it was 50.8 µM; with SW-620 colon, above 100 µM.
With `NC(=S)N/N=C/c1ccc(O)cn1`, the GI50 with CCRF-CEM leukemia was 4.59 µM and 2.42 µM; in the assay on COLO 205 colon, 35.8 µM and 55 µM and 8.96 µM; with K-562 leukemia it was 12.3 µM and 7.25 µM; with MCF7 breast, 2.03 µM; with NCI/ADR-RES ovarian, 3.09 µM; with SF-295 CNS, 33.7 µM and 31.7 µM. The GI50 with SK-MEL-28 melanoma was 49.9 µM and 41.6 µM; in the assay with SW-620 colon, 27.4 µM and 13.2 µM. The TGI in the assay on CCRF-CEM leukemia is 37.4 µM and 12 µM and 60.8 µM; in the assay with COLO 205 colon it was > 1500 µM and 655 µM; in the assay on HS 578T breast, above 1500 µM; with K-562 leukemia, 55.2 µM and 439 µM; in the assay with MCF7 breast, above 1500 µM; in the assay on MDA-MB-435 it was above 1130 µM. The TGI with SF-295 CNS was 113 µM and 111 µM; with SK-MEL-28 melanoma, > 1500 µM and 1050 µM; with SW-620 colon, above 1500 µM.
Turning to `Cc1cc([N+](=O)[O-])ccc1NS(=O)(=O)c1cc(Cl)ccc1Cl`, the GI50 is 3.47 µM in the assay on CCRF-CEM leukemia; 3.23 µM in the assay with COLO 205 colon; 4.23 µM in the assay on HS 578T breast; 3.56 µM in the assay on K-562 leukemia; 2.51 µM in the assay with MCF7 breast; 2.77 µM in the assay on MDA-MB-435. Besides, the GI50 with NCI/ADR-RES ovarian is 3.07 µM; with SF-295 CNS, 2.46 µM; in the assay with SK-MEL-28 melanoma, 5.17 µM; in the assay with SW-620 colon it was 4.36 µM. The TGI in the assay on CCRF-CEM leukemia was above 72.4 µM; in the assay with COLO 205 colon, 12.3 µM; with HS 578T breast it was 60.5 µM; in the assay with K-562 leukemia, above 100 µM; in the assay with MCF7 breast, above 49.4 µM; with MDA-MB-435, 36.6 µM. In addition, the TGI is 17.5 µM in the assay with NCI/ADR-RES ovarian, 9.26 µM in the assay on SF-295 CNS, above 94.6 µM in the assay on SK-MEL-28 melanoma and above 100 µM with SW-620 colon.
On to `O=C1c2cc(-c3ccccc3)ccc2-c2c1c1ccc([N+](=O)[O-])cc1c(=O)n2CCCBr`, for which the GI50 is 0.16 µM in the assay on CCRF-CEM leukemia; above 50 µM in the assay on COLO 205 colon; 10.5 µM with HS 578T breast; above 46.4 µM in the assay on MCF7 breast; above 50 µM with MDA-MB-435; above 50 µM in the assay with NCI/ADR-RES ovarian. For the same molecule, the GI50 in the assay on SF-295 CNS is above 37.4 µM; in the assay with SK-MEL-28 melanoma, above 50 µM; in the assay with SW-620 colon, above 50 µM. Besides, the TGI in the assay on CCRF-CEM leukemia is 0.6 µM; with COLO 205 colon, above 50 µM; with HS 578T breast, above 40.7 µM; with K-562 leukemia, above 12.2 µM; in the assay with MCF7 breast it was above 50 µM; in the assay with MDA-MB-435, above 50 µM. Further, the TGI in the assay with NCI/ADR-RES ovarian, in the assay on SF-295 CNS, in the assay with SK-MEL-28 melanoma and in the assay with SW-620 colon was above 50 µM throughout.
